For this test, the target named is ALK (Homo sapiens (Human), UniProt Q9UM73). The test can be described thus: ALK IC50 (Tables 1-4). The class given is biochemical. The method, then: Assays are incubated for 10 min at ambient temperature. […] Following washing (0.5% H3PO4), plates are counted in a liquid scintillation counter. IC50 values are calculated by linear regression analysis of the percentage inhibition.
Compounds of the present invention may be assessed for their ability to inhibit ALK using assays described below, as well as other assays known in the art.

Chain of ALK (Q9UM73 1116-1392): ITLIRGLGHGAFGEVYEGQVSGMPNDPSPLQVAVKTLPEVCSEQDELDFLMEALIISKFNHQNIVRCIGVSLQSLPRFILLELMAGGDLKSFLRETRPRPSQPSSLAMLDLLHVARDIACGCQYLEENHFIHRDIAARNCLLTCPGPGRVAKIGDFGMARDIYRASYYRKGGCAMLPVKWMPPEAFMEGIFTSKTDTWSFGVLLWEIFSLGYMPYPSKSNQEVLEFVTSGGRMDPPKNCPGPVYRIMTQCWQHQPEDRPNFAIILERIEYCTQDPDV

As a reminder, the IC50 is the midpoint of a concentration-inhibition curve. Lower therefore signals greater potency in that assay. Consider `Cc1cc(Nc2nc(Nc3ccccc3S(=O)(=O)C(C)C)c3c(C)n[nH]c3n2)c(OC(C)C)cc1C1CCN(C)CC1` [Compound 34, N6-(2-isopropoxy-5-methyl-4-(1-methylpiperidin-4-yl)phenyl)-N4-(2-(isoproplsulfonyl)phenyl)-3-methyl-1H-pyrazolo[3,4-d]pyrimidine-4,6-diamine], for which the IC50 is 20 nM.

Source of the values: patent US8592432B2, “Compounds and compositions as protein kinase inhibitors” (priority 2008, dated 2013).
